In patent EP4483954A1 (Masarykova Univerzita, priority 2023, dated 2025):

What was measured:
Format in all cases: biochemical
CLK2 (h) = biological target: T1, CLK2 (h) (Homo sapiens, UniProt P49760); assay: radiometric kinase assay (KinaseProfiler, Eurofins), CLK2; conditions: in vitro radiometric kinase assay, tested at 1 nM to 10 000 nM, no pre-incubation; read-out: inhibitory activities (IC50 values) CLK2
T1 construct: purchased Eurofins (KinaseProfiler)
Description: (§1) The compounds were profiled in the radiometric assays (KinaseProfiler, Eurofins).
(§2) Briefly, kinases were diluted in the buffer shown below prior to addition to the reaction mix: • CDKL3, TAF1L: 20 mM Tris/HCl pH 8.5, 0.2 mM EDTA, 0.1% β-mercaptoethanol, 0.01% Brij-35, 5% glycerol, 1 mg/ml BSA; • Haspin: 15 mM MOPS, 0.75 mM EDTA, 0.0075% Brij-35, 3.75% Glycerol, 150 mM NaCl, 0.1% β-mercaptoethanol, 1 mg/mLBSA; • CDKL4, CLK2, PIM1, TRB2: […], 1 mM EDTA, 0.01% Brij-35, 5% Glycerol, 0.1% β-mercaptoethanol, 1 mg/mL BSA.
(§3) All compounds were prepared to 50x final assay concentration in 100% DMSO. This working stock of the compound was added to the assay well as the first component in the reaction, followed by the remaining components as detailed in the general assay protocols below. There was no pre-incubation step between the compound and the kinase prior to initiation of the reaction.
CLK2 (h) was incubated with 8 mM MOPS pH 7.0, 0.2 mM EDTA, 20 µM […](p)EDEEE (SEQ ID NO. 2), 10 mM magnesium acetate and γ-^33P-ATP (specific activity and concentration as required). The reaction was initiated by the addition of the Mg/ATP mix. After incubation for 40 minutes at room temperature, the reaction was stopped by the addition of phosphoric acid to a concentration of 0.5%. An aliquot of the reaction was then spotted onto a filter and washed four times for 4 minutes in 0.425% phosphoric acid and once in methanol prior to drying and scintillation counting.
(§4) Kinase activity data were expressed as the percent remaining kinase activity in tested samples compared to the vehicle (DMSO) reactions. The compounds were tested at the following concentrations: 1 nM, 3 nM, 10 nM, 30 nM, 100 nM, 300 nM, 1000 nM, 3000 nM, and 10 000 nM; IC50 values and curve fits were then obtained.

TAF1L(h) = biological target: T2, TAF1L(h) (Homo sapiens, UniProt Q8IZX4); assay: radiometric kinase assay (KinaseProfiler, Eurofins), TAF1L; conditions: in vitro radiometric kinase assay, tested at 1 nM to 10 000 nM, no pre-incubation; read-out: inhibitory activities (IC50 values) TAF1L
T2 construct: purchased Eurofins (KinaseProfiler)
Description: as §1, §2, §3
(§5) TAF1L(h) was incubated with 20 mM Tris/HCl pH 8.5, 0.2 mM EDTA, 250 µM RRRFRPASPLRGPPK (SEQ ID NO. 1), 10 mM magnesium acetate and γ-^33P-ATP (specific activity and concentration as required). The reaction was initiated by the addition of the Mg/ATP mix. After incubation for 120 minutes at room temperature, the reaction was stopped by the addition of phosphoric acid to a concentration of 0.5%. An aliquot of the stopped reaction was spotted onto a filter and washed four times for 4 minutes in 0.425% phosphoric acid and once in methanol prior to drying and scintillation counting.
as §4

PIM1 (h) = biological target: T3, PIM1 (h) (Homo sapiens, UniProt P11309); assay: radiometric kinase assay (KinaseProfiler, Eurofins), PIM1; conditions: in vitro radiometric kinase assay, tested at 1 nM to 10 000 nM, no pre-incubation; read-out: inhibitory activities (IC50 values) PIM1
T3 construct: purchased Eurofins (KinaseProfiler)
Description: as §1, §2, §3
PIM1 (h) was incubated with 8 mM MOPS pH 7.0, 0.2 mM EDTA, 100 µM KKRNRTLTV (SEQ ID NO. 4), 10 mM magnesium acetate and γ-^33P-ATP (specific activity and concentration as required). The reaction was initiated by the addition of the Mg/ATP mix. After incubation for 40 minutes at room temperature, the reaction was stopped by the addition of phosphoric acid to a concentration of 0.5%. An aliquot of the reaction was then spotted onto a filter and washed four times for 4 minutes in 0.425% phosphoric acid and once in methanol prior to drying and scintillation counting.
as §4

CDKL4(h) = biological target: T4, CDKL4(h) (Homo sapiens, UniProt Q5MAI5); assay: radiometric kinase assay (KinaseProfiler, Eurofins), CDKL4; conditions: in vitro radiometric kinase assay, tested at 1 nM to 10 000 nM, no pre-incubation; read-out: inhibitory activities (IC50 values) CDKL4
T4 construct: purchased Eurofins (KinaseProfiler)
Description: as §1, §2, §3
as §5, with “CDKL4(h) was” for “TAF1L(h) was”, “with 8” for “with 20”, “mM MOPS” for “mM Tris/HCl”, “pH 7.0,” for “pH 8.5,”
as §4

TRB2(h) = biological target: T5, TRB2(h) (Homo sapiens, UniProt Q92519); assay: radiometric kinase assay (KinaseProfiler, Eurofins), TRB2; conditions: in vitro radiometric kinase assay, tested at 1 nM to 10 000 nM, no pre-incubation; read-out: inhibitory activities (IC50 values) TRB2
T5 construct: purchased Eurofins (KinaseProfiler)
T5 sequence (Q92519 1-343): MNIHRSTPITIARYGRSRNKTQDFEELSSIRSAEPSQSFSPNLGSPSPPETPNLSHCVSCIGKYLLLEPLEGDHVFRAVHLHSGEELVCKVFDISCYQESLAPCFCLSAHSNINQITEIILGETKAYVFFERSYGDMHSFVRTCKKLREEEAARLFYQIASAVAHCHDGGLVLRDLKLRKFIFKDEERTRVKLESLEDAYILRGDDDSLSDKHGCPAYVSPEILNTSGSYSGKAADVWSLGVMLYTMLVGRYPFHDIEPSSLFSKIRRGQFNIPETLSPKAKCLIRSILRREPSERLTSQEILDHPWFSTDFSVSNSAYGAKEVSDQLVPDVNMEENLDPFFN
Description: as §1, §2, §3
as §5, with “TRB2(h) was” for “TAF1L(h) was”, “with 8” for “with 20”, “mM MOPS” for “mM Tris/HCl”, “pH 7.0,” for “pH 8.5,”
as §4

T3 sequence (P11309 whole entry): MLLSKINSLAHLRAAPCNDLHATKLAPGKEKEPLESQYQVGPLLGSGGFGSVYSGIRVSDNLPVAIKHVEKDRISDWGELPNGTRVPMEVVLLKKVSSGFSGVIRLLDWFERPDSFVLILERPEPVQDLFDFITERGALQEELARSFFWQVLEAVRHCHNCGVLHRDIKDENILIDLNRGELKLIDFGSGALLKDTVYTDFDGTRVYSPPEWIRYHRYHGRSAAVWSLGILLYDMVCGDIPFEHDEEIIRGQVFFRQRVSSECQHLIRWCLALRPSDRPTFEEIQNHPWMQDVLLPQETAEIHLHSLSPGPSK
T2 sequence (Q8IZX4 whole entry): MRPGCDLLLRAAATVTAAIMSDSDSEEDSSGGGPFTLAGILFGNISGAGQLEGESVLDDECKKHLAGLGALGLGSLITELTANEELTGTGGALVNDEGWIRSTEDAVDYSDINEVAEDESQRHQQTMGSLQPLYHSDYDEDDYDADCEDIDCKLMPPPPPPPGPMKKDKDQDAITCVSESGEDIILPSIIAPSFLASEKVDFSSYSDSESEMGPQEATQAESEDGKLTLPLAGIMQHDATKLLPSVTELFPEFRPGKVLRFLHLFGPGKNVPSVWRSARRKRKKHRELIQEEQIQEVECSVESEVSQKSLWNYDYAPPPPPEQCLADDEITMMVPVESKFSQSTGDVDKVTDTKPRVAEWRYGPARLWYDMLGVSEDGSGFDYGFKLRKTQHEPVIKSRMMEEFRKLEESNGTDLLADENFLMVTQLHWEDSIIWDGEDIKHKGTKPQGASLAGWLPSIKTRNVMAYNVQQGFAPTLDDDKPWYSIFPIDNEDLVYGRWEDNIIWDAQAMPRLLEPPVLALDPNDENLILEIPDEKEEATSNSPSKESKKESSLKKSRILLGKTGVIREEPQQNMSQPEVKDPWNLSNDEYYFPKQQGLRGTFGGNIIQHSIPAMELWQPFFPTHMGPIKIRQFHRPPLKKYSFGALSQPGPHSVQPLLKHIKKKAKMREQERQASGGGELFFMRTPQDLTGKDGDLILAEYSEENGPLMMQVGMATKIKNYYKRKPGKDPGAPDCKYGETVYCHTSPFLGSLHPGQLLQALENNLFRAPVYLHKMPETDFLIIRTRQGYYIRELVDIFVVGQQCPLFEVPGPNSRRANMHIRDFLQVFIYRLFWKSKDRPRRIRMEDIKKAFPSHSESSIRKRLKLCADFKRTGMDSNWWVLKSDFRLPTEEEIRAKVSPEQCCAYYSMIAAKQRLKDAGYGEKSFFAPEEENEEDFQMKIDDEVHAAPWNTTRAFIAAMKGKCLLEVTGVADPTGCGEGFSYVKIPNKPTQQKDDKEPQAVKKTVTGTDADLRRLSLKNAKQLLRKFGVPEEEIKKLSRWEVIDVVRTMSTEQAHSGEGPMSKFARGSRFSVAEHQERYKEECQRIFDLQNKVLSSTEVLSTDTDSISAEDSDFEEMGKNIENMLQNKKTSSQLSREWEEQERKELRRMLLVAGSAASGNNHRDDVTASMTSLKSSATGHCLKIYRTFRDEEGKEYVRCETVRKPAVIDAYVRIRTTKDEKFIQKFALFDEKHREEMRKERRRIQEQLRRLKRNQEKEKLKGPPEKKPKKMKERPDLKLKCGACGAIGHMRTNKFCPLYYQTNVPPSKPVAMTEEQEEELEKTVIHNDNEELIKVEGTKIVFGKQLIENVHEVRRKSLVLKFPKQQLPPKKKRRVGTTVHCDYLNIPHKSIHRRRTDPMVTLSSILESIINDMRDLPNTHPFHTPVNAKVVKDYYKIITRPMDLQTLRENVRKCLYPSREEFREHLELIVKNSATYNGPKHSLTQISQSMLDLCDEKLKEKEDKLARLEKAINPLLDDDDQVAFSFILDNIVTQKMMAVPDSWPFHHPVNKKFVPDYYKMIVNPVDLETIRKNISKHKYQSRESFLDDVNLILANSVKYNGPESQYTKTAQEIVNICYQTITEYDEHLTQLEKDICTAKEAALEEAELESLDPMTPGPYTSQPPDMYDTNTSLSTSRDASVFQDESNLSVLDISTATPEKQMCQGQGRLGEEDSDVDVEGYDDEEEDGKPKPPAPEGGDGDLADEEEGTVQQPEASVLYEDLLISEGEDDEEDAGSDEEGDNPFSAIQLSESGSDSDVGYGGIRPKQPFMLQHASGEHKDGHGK
T4 sequence (Q5MAI5 whole entry): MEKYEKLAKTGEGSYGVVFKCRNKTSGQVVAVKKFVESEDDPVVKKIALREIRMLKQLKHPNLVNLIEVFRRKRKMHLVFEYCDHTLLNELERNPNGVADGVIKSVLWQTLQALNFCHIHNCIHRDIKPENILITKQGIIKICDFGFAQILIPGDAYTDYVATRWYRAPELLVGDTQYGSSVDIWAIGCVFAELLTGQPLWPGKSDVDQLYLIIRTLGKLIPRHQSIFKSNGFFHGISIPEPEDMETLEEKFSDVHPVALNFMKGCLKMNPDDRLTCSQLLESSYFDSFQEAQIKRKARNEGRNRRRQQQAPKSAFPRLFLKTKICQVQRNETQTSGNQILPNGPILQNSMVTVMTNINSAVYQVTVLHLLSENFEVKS
T1 sequence (P49760 whole entry): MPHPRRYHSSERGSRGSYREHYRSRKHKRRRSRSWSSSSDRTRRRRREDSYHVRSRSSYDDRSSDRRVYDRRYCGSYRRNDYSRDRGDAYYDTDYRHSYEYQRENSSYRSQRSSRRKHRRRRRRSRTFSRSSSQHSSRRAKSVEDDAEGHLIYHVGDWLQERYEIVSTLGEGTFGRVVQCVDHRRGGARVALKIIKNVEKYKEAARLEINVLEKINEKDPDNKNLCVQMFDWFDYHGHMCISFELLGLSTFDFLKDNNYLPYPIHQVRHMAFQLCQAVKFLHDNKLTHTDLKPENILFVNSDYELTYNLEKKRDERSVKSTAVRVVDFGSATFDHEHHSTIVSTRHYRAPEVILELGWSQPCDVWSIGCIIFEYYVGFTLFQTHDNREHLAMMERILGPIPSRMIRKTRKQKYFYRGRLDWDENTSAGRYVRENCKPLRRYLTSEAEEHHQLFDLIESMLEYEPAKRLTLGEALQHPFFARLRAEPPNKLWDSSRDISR

`Cn1cc(-c2ccc3scc(Nc4ccccc4)c3n2)cn1` [Preparative Example 76, 5-(1-methyl-1H-pyrazol-4-yl)-N-phenylthieno[3,2-b]pyridin-3-amine] was tested, and the IC50 (CLK2 (h)) was 500 to 3000 nM, the IC50 (TAF1L(h)) was 20 to 99 nM and the IC50 (PIM1 (h)) was 100 to 499 nM. The IC50 (CDKL4(h)) was 20 to 99 nM and the IC50 (TRB2(h)) was 100 to 499 nM.
In the case of `Cc1cc(-c2cnn(C)c2)nc2c(-c3ccncc3)csc12` [Preparative Example 157, 7-methyl-5-(1-methyl-1H-pyrazol-4-yl)-3-(pyridin-4-yl)thieno[3,2-b]pyridine], the IC50 (CLK2 (h)) is reported as 3000 to 10000 nM, the IC50 (TAF1L(h)) is reported as 3000 to 10000 nM and the IC50 (PIM1 (h)) is reported as 3000 to 10000 nM. For the same molecule, the IC50 (CDKL4(h)) was 500 to 3000 nM and the IC50 (TRB2(h)) was 500 to 3000 nM.
Work on `Cn1ncc(-c2ccc3scc(-c4ccncc4)c3n2)n1` [Preparative Example 94, 5-(2-methyl-2H-1,2,3-triazol-4-yl)-3-(pyridin-4-yl)thieno[3,2-b]pyridine] yielded an IC50 (CLK2 (h)) of 3000 to 10000 nM, an IC50 (TAF1L(h)) of 500 to 3000 nM and an IC50 (PIM1 (h)) of 3000 to 10000 nM. It also gave an IC50 (CDKL4(h)) of 500 to 3000 nM and an IC50 (TRB2(h)) of 500 to 3000 nM.
With `Cn1cc(-c2ccc3scc(-c4cncs4)c3n2)cn1` [Preparative Example 69, 5-(1-methyl-1H-pyrazol-4-yl)-3-(thiazol-5-yl)thieno[3,2-b]pyridine] the IC50 (CLK2 (h)) was 500 to 3000 nM, the IC50 (TAF1L(h)) was 20 to 99 nM and the IC50 (PIM1 (h)) was 100 to 499 nM. The IC50 (CDKL4(h)) was 100 to 499 nM and the IC50 (TRB2(h)) was 100 to 499 nM.
`Cn1cc(-c2ccc3scc(-c4ccncc4)c3n2)nn1` [Preparative Example 93, 5-(1-methyl-1H-1,2,3-triazol-4-yl)-3-(pyridin-4-yl)thieno[3,2-b]pyridine] gave an IC50 (CLK2 (h)) of 3000 to 10000 nM, an IC50 (TAF1L(h)) of 500 to 3000 nM and an IC50 (PIM1 (h)) of 500 to 3000 nM. For the same molecule, the IC50 (CDKL4(h)) was 3000 to 10000 nM and the IC50 (TRB2(h)) was 500 to 3000 nM.
Work on `Cn1cc(-c2ccc3scc(-c4ccccc4)c3n2)cn1` [Preparative Example 2, 5-(1-methyl-1H-pyrazol-4-yl)-3-phenylthieno[3,2-b]pyridine] yielded an IC50 (CLK2 (h)) of 3000 to 10000 nM, an IC50 (TAF1L(h)) of 100 to 499 nM and an IC50 (PIM1 (h)) of 500 to 3000 nM. It also gave an IC50 (CDKL4(h)) of 100 to 499 nM and an IC50 (TRB2(h)) of 500 to 3000 nM.
`Cc1nn(C)c(C)c1-c1ccc2scc(-c3ccncc3)c2n1` [Preparative Example 85, 3-(pyridin-4-yl)-5-(1,3,5-trimethyl-1H-pyrazol-4-yl)thieno[3,2-b]pyridine] showed an IC50 (CLK2 (h)) of 3000 to 10000 nM, an IC50 (TAF1L(h)) of 500 to 3000 nM and an IC50 (PIM1 (h)) of 3000 to 10000 nM. The IC50 (CDKL4(h)) was 500 to 3000 nM and the IC50 (TRB2(h)) was 500 to 3000 nM.
Molecule `Cn1ccc(Nc2ccc3scc(-c4ccncc4)c3n2)n1` [Preparative Example 99, N-(1-methyl-1H-pyrazol-3-yl)-3-(pyridin-4-yl)thieno[3,2-b]pyridin-5-amine] has an IC50 (CLK2 (h)) of 500 to 3000 nM, an IC50 (TAF1L(h)) of 500 to 3000 nM and an IC50 (PIM1 (h)) of 500 to 3000 nM. The IC50 (CDKL4(h)) was 500 to 3000 nM and the IC50 (TRB2(h)) was 100 to 499 nM.
`Cn1cc(-c2ccc3scc(-c4cnn(C)c4)c3n2)cn1` [Preparative Example 63, 3,5-bis(1-methyl-1H-pyrazol-4-yl)thieno[3,2-b]pyridine] showed an IC50 (CLK2 (h)) of 500 to 3000 nM, an IC50 (TAF1L(h)) of 100 to 499 nM and an IC50 (PIM1 (h)) of 100 to 499 nM. The IC50 (CDKL4(h)) was 100 to 499 nM and the IC50 (TRB2(h)) was 500 to 3000 nM.
